Experiments:
[1] = test system: primary brown adipocytes; assay: Thermogenic gene expression (qRT-PCR) in primary brown adipocytes; type: cell-based, mouse
Description: RNA was extracted from cultured cells or frozen tissue samples using TRIzol (Invitrogen), purified with Qiagen RNAeasy minicolums and reverse transcribed using High Capacity cDNA Reverse Transcription kit (Applied Biosystems). Resulting cDNA was analyzed by RT-qPCR. Briefly, 25 ng of cDNA and […] of each primer were mixed with SYBR® GreenER™ PCR Master Mix (Invitrogen). Reactions were performed in 384-well format using an ABI PRISM® 7900HT instrument (Applied Biosystems). Relative mRNA levels were calculated using the comparative CT method normalized to cyclophilin.

[2] = test system: primary white adipocytes; assay: Cellular oxygen consumption rate (XF24 Extracellular Flux Analyzer, Seahorse) of primary adipocytes; type: cell-based, mouse; settings: for uncoupled respiration and maximal respiration potential: 24 hour treatment, norepinephrine 100 nM, peptides 100 ng/mL, SeaHorse (FIG. 8D)
Description: The cellular oxygen consumption rate (OCR) of primary adipocytes was determined using an XF24 Extracellular Flux Analyzer (Seahorse Bioscience). […] Twenty-four hours later, adipocyte culture medium was changed to DMEM lacking NaHCO3 but containing 10 mM glucose, 1 mM pyruvate and the treatment chemicals. The uncoupled and maximal OCRs were determined using […] (carbonyl cyanide p-trifluoromethoxyphenylhydrazone), respectively. Complex-1-dependent respiration was inhibited with 3 μM rotenone. Ex vivo tissue respiration was measured using a Clark electrode (Strathkelvin Instruments) as described in Cohen et al. (2014) Cell 156:304-316. Freshly isolated tissues were briefly minced and transferred to the electrode chamber containing a respiration buffer consisting of 1×DPBS (Delbecco's phosphate-buffered saline), 2% BSA, 25 mM glucose and 1 mM pyruvate. Oxygen consumption values were normalized to tissue weight.

[3] = test system: PKA substrates CREB and HSL; assay: PKA signalling: protein phosphorylation by western blotting in primary adipocytes; type: cell-based, mouse; settings: 100 nM NE, 100 ng ml^−1 PTHrP or PTH, 30 min, primary white and brown adipocytes (FIG. 23D-23E)
Description: UCP1 protein levels were measured by western blotting in white (FIG. 23A) and brown (FIG. 23B) adipocytes. […] Real-time triplicate readings (upper panel) and their averages (lower panel) are shown (n=4). […] The values are mean±s.e.m. Statistical analysis was conducted using the two-tailed t-test. *, P<0.05; **, P<0.005; ***, P<0.0005, compared with the control group.
Cells were homogenized in a lysis buffer containing 50 mMTris (pH 7.4), 500 mM NaCl, 1% NP40, 20% glycerol, 5 mM EDTA and 1 mM phenylmethylsulphonyl fluoride (PMSF) supplemented with protease and phosphatase inhibitor cocktails (Roche). The homogenates were centrifuged at 13,000 r.p.m. for 10 min, and the supernatants were used as whole-cell lysates. Protein concentration was determined by Bio-Rad protein assay, and […] protein lysate was separated in each SDS-PAGE lane. The separated proteins were transferred to a polyvinylidene difluoride (PVDF)membrane, which was blotted with antibodies in TBS containing 0.05% Tween (TBS-T) and 5% BSA. For secondary antibody incubation. TBS-T containing 5% milk was used. Enhanced chemiluminescence (ECL) western blotting substrates (Pierce) were used for visualization of the results.

[4] = biological target: T1, PTH1R (Homo sapiens, UniProt Q03431); settings: cited from earlier work
T1 sequence (Q03431 27-593): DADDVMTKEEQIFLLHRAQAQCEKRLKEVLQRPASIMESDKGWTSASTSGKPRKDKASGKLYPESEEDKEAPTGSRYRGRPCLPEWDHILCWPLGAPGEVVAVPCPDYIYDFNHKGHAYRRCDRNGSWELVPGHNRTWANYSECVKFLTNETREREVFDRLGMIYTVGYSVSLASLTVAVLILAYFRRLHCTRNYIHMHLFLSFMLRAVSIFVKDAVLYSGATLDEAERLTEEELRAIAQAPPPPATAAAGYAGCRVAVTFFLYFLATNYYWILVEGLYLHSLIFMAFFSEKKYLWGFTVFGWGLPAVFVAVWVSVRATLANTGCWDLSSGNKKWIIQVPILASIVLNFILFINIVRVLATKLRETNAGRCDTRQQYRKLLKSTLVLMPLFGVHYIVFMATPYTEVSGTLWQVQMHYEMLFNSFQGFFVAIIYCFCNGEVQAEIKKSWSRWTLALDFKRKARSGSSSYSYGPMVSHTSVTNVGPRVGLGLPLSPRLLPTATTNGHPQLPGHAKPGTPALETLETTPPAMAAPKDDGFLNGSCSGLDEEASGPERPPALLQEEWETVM

[5] = biological target: T1, PTH1R; settings: Dean et al., Hoare et al.; cited from earlier work

In the case of “PTH (1-34): Synthetic peptide rat PTH(1-34) (Ala32-Phe65; Catalog No. H-5460), purchased from Bachem”, the thermogenic gene expression ([1]; 100 ng ml^−1 peptide, 2 h, primary brown adipocytes (FIG. 20D)) was “stimulated thermogenic gene expression”, the “thermogenic effects (thermogenic gene expression)” value ([1]; 1 μg/ml, primary brown adipocytes (FIG. 9A)) was “thermogenic effects” and the “oxygen consumption, including basal, uncoupled and maximal respiration” value ([2]; 100 nM NE, 100 ng ml^−1 PTHrP or PTH, 24 h (FIG. 23C)) was “significantly raised oxygen consumption”. For the same substance, the “uncoupled respiration and maximal respiration potential” value [2] was “significantly elevate”, the “uncoupled respiration and maximal respiration potential” value ([2]; listed as PTH) was “powerful inducers” and the “phosphorylation of the PKA substrates CREB and HSL” value [3] was “stimulated the phosphorylation”. For the same substance, the “duration of cAMP signal after ligand wash-out” value ([4]; Dean et al. (2008)) was “longer lasting cAMP signal”, the “potency for activating cAMP signaling” value ([4]; Juppner et al. (1991)) was “equally potent for activating cAMP signaling” and the “binding in the absence of G protein coupling (RO conformational state)” value [5] was “only slightly decreased”.

Reference: patent US20160175401A1, “COMPOITIONS AND METHODS FOR MODULATING THERMOGENESIS USING PTH-RELATED AND EGF-RELATED COMPOUNDS” (DANA-FARBER CANCER INSTITUTE INC., priority 2013, published 2016)
